Among the data in patent US20070043010A1, “Quinazoline derivatives” (ASTRAZENECA UK LIMITED, priority 2003, published 2007) are IC50 values, retold here.

The test concerns KB cells. As to the kind of experiment: EGFR driven KB cell proliferation assay, Test (b). Type of test: cell-based. The following applies: Homo sapiens, 96 h, EGF 1 ng/ml, 4 days, MTT. Here is the method: This assay measures the ability of a test compound to inhibit the proliferation of KB cells (human naso-pharangeal carcinoma obtained from the American Type Culture Collection (ATCC).
KB cells (human naso-pharangeal carcinoma obtained from the ATCC were cultured in Dulbecco's modified Eagle's medium (DMEM) containing 10% foetal calf serum, 2 mM glutamine and non-essential amino acids at 37° C. in a 7.5% CO2 air incubator. Cells were harvested from the stock flasks using Trypsin/ethylaminediaminetetraacetic acid (EDTA). Cell density was measured using a haemocytometer and viability was calculated using trypan blue solution before being seeded at a density of 1.25×10^3 cells per well of a 96 well plate in DMEM containing 2.5% charcoal stripped serum, 1 mM glutamine and non-essential amino acids at 37° C. in 7.5% CO2 and allowed to settle for 4 hours.
Following adhesion to the plate, the cells are treated with or without EGF (final concentration of 1 ng/ml) and with or without compound at a range of concentrations in dimethylsulfoxide (DMSO) (0.1% fial) before incubation for 4 days. Following the incubation period, cell numbers were determined by addition of 50 μl of 3-(4,5-Dimethylthiazol-2-yl)-2,5-diphenyltetrazolium bromide (MTT) (stock 5 mg/ml) for 2 hours. MTT solution was then tipped off, the plate gently tapped dry and the cells dissolved upon the addition of 100 μl of DMSO.
Absorbance of the solubilised cells was read at 540 nm using a Molecular Devices ThermoMax microplate reader. Inhibition of proliferation was expressed as an IC50 value. This was determined by calculation of the concentration of compound that was required to give 50% inhibition of proliferation. The range of proliferation was calculated from the positive (vehicle plus EGF) and negative (vehicle minus EGF) control values.

Turning to `COc1cc2ncnc(Nc3cccc(Cl)c3F)c2cc1O[C@H]1C[C@H](C(=O)NCCNC(C)=O)N(C)C1` [Compound 11-13, (4S)—N-[2-(acetylamino)ethyl]-4-({4-[(3-chloro-2-fluorophenyl)amino]-7-methoxyquinazolin-6-yl}oxy)-1-methyl-D-prolinamide], the IC50 (usually the point on the concentration scale where inhibition reaches its midpoint) came out at 144 nM.

`COc1cc2ncnc(Nc3cccc(Cl)c3F)c2cc1O[C@@H]1C[C@@H](C(=O)NCCC#N)N(C)C1` [Compound 13-3] displayed an IC50 of 63 nM.

As for `COc1cc2ncnc(Nc3cccc(Cl)c3F)c2cc1O[C@H]1C[C@H](C(=O)N[C@H]2COC[C@@H]2O)N(C)C1` [Compound 11-14, (4S)-4-({4-[(3-chloro-2-fluorophenyl)amino]-7-methoxyquinazolin-6-yl}oxy)-N-[(3S,4R)-4-hydroxytetrahydrofuran-3-yl]-1-methyl-D-prolinamide], half-maximal inhibition (IC50) required 139 nM.
